Measurements published in paper PMC6934184, “Selective DNA-PKcs inhibition extends the therapeutic index of localized radiotherapy and chemotherapy” (The Journal of Clinical Investigation, 2019).

Target: T1, BTK (Homo sapiens, UniProt Q06187)
T1 construct: purchased Thermo Fisher Scientific (Life Technologies) SelectScreen
Test: SelectScreen Z'LYTE
Type: biochemical
Summary of the method: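 Percent values come from Thermo SelectScreen profiling of NU5455, combining activity and binding assays. CSF1R was run in Z'LYTE format at Km app ATP, and CAMK1 in Adapta format with ATP listed at 10.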

T1 sequence (Q06187 whole entry): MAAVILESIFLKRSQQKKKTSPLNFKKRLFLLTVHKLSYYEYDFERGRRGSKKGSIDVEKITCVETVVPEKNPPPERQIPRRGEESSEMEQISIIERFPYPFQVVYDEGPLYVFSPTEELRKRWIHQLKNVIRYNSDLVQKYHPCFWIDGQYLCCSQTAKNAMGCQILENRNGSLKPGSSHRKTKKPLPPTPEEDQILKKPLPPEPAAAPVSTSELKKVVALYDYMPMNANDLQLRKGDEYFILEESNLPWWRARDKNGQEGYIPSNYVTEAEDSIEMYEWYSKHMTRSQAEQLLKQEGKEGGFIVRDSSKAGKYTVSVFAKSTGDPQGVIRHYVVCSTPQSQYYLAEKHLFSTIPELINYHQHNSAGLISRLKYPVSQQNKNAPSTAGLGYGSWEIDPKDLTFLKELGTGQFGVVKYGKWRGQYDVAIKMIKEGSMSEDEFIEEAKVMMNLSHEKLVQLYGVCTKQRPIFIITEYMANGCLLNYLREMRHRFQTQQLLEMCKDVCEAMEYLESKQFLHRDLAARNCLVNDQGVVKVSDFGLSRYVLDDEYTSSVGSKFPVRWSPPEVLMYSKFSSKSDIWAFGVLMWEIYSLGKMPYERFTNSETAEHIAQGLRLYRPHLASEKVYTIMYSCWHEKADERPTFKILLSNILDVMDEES

`CN(C(=O)CN1CCOCC1)c1ccc2sc3c(-c4cccc5c(=O)cc(N6CC7CCC(C6)O7)oc45)cccc3c2c1` [NU5455] gave an inhibition at 1 µM of -2%.
